Source: ChEMBL document CHEMBL4507257, “Data for DCP probe ABT-100” (2021)

Experiments:
[1] = target: TGF-beta receptor type-2 (Homo sapiens) (UniProt P37173); conditions: Compound concentration 1000.0 nM
[2] = target: Serine/threonine-protein kinase TAO3 (Homo sapiens) (UniProt Q9H2K8); conditions: Compound concentration 1000.0 nM
[3] = target: Mitogen-activated protein kinase 3 (Homo sapiens) (UniProt P27361); conditions: Compound concentration 1000.0 nM
[4] = target: Tyrosine-protein kinase Lyn (Homo sapiens) (UniProt P07948); conditions: Compound concentration 1000.0 nM
Sequence of Tyrosine-protein kinase Lyn (Homo sapiens) (P07948 2-512 limits assumed): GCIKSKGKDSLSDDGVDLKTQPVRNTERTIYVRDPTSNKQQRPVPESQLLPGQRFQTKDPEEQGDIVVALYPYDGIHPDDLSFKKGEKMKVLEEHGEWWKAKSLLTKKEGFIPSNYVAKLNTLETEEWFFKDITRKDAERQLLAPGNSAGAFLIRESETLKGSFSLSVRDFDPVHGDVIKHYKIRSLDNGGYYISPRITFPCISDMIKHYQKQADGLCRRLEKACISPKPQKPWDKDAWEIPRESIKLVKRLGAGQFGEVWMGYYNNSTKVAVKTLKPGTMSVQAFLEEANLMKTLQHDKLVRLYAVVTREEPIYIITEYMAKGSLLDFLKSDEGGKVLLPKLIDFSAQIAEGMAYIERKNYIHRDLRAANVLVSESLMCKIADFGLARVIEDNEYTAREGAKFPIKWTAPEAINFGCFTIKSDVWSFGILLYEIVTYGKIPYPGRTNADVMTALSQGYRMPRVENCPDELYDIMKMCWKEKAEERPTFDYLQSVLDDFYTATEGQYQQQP

[5] = target: Serine/threonine-protein kinase DCLK2 (Homo sapiens) (UniProt Q8N568); conditions: Compound concentration 1000.0 nM
[6] = target: Mitogen-activated protein kinase kinase kinase kinase 5 (Homo sapiens) (UniProt Q9Y4K4); conditions: Compound concentration 1000.0 nM
[7] = target: Epithelial discoidin domain-containing receptor 1 (Homo sapiens) (UniProt Q08345); conditions: Compound concentration 1000.0 nM
[8] = target: BMP-2-inducible protein kinase (Homo sapiens) (UniProt Q9NSY1); conditions: Compound concentration 1000.0 nM
[9] = target: Mitogen-activated protein kinase kinase kinase 5 (Homo sapiens) (UniProt Q99683); conditions: Compound concentration 1000.0 nM
[10] = target: High affinity nerve growth factor receptor (Homo sapiens) (UniProt P04629); conditions: Compound concentration 1000.0 nM
[11] = tested on: Proto-oncogene tyrosine-protein kinase receptor Ret (Homo sapiens), P07949 [V804L]; conditions: Compound concentration 1000.0 nM
[12] = target: Serine/threonine-protein kinase OSR1 (Homo sapiens) (UniProt O95747); conditions: Compound concentration 1000.0 nM
[13] = target: Ribosomal protein S6 kinase alpha-5 (Homo sapiens) (UniProt O75582); conditions: Compound concentration 1000.0 nM
[14] = target: Mitogen-activated protein kinase kinase kinase kinase 2 (Homo sapiens) (UniProt Q12851); conditions: Compound concentration 1000.0 nM
[15] = target: Cyclin-dependent kinase 11A (Homo sapiens) (UniProt Q9UQ88); conditions: Compound concentration 1000.0 nM
[16] = target: 5-hydroxytryptamine receptor 5A (Homo sapiens) (UniProt P47898); conditions: Compound concentration 10.0 uM
Sequence of 5-hydroxytryptamine receptor 5A (Homo sapiens) (P47898 whole entry): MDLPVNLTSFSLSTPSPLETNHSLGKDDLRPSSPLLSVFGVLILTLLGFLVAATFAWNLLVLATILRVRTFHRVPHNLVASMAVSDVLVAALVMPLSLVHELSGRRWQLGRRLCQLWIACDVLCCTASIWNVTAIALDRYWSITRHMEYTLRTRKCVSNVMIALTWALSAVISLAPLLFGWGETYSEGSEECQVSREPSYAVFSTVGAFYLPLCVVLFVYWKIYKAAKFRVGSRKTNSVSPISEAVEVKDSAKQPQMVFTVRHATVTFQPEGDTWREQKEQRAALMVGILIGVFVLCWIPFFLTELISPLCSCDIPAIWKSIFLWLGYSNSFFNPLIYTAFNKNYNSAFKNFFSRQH

[17] = target: Tyrosine-protein kinase receptor Tie-1 (Homo sapiens) (UniProt P35590); conditions: Compound concentration 1000.0 nM
Sequence of Tyrosine-protein kinase receptor Tie-1 (Homo sapiens) (P35590 whole entry): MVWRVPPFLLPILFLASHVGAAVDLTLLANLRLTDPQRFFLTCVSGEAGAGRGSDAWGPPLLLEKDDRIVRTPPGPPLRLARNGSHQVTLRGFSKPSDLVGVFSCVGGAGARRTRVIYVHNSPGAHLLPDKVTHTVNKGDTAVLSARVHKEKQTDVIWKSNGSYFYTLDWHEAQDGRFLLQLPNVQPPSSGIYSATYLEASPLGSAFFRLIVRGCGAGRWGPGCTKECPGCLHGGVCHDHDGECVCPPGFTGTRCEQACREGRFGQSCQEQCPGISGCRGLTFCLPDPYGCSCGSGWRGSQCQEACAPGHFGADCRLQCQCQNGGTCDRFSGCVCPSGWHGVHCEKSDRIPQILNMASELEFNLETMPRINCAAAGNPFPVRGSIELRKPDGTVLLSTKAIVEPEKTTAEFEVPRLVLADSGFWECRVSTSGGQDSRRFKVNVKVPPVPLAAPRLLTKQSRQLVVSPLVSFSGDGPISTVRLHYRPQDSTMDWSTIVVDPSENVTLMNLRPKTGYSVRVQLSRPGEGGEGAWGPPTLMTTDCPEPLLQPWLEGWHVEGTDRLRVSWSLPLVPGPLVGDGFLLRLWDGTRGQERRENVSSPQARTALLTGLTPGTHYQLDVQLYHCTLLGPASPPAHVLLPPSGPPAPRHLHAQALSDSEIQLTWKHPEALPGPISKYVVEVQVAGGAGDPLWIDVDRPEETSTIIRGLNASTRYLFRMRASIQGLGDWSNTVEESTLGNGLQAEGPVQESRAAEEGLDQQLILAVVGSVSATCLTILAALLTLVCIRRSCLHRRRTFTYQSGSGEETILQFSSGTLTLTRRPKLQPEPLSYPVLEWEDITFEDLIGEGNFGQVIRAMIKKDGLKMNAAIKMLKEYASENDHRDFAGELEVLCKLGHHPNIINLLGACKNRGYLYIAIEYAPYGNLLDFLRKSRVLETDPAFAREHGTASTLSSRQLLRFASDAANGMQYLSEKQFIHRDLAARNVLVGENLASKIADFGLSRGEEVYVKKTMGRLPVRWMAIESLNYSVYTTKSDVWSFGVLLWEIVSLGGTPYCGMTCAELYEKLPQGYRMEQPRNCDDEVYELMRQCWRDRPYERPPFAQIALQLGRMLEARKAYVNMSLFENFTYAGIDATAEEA

[18] = target: Non-receptor tyrosine-protein kinase TYK2 (Homo sapiens) (UniProt P29597); conditions: Compound concentration 1000.0 nM
[19] = target: Mitogen-activated protein kinase 10 (Homo sapiens) (UniProt P53779); conditions: Compound concentration 1000.0 nM
[20] = target: Phosphatidylinositol 4,5-bisphosphate 3-kinase catalytic subunit beta isoform (Homo sapiens) (UniProt P42338); conditions: Compound concentration 1000.0 nM
Sequence of Phosphatidylinositol 4,5-bisphosphate 3-kinase catalytic subunit beta isoform (Homo sapiens) (P42338 whole entry, looked up, canonical isoform): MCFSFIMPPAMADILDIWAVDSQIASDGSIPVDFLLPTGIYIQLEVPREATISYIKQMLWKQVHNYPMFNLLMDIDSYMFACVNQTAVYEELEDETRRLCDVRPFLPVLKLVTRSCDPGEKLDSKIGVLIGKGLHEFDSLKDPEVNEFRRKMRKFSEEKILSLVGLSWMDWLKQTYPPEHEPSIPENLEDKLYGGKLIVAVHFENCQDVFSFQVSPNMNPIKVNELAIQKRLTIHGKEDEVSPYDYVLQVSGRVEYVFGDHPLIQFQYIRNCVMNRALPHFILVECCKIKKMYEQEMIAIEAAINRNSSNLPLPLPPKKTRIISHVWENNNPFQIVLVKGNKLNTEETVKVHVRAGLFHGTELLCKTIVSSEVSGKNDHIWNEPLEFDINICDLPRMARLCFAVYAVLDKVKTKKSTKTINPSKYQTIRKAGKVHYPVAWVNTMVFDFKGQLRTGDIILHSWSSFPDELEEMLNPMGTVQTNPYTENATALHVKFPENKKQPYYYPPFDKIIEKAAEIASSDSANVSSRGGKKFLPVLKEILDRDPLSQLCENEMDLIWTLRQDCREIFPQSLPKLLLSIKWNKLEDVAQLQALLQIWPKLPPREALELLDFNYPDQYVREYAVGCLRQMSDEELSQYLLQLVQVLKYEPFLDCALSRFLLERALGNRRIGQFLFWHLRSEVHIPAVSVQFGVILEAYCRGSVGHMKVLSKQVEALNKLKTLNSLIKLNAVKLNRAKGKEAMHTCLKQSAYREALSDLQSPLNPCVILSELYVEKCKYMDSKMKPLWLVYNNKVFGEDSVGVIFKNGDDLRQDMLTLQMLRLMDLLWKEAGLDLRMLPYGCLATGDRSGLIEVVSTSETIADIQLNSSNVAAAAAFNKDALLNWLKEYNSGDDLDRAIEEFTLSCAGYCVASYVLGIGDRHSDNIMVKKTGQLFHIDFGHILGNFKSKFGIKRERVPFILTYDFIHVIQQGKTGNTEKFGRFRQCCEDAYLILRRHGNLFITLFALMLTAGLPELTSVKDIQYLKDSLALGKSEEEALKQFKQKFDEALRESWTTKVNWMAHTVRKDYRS

[21] = target: Serine/threonine-protein kinase MAK (Homo sapiens) (UniProt P20794); conditions: Compound concentration 1000.0 nM
[22] = target: Cyclin-dependent kinase 7 (Homo sapiens, UniProt P50613); conditions: Compound concentration 1000.0 nM
[23] = target: Ribosomal protein S6 kinase beta-1 (Homo sapiens) (UniProt P23443); conditions: Compound concentration 1000.0 nM
[24] = target: Tyrosine-protein kinase JAK1 (Homo sapiens) (UniProt P23458); conditions: Compound concentration 1000.0 nM
[25] = target: Megakaryocyte-associated tyrosine-protein kinase (Homo sapiens) (UniProt P42679); conditions: Compound concentration 1000.0 nM
Sequence of Megakaryocyte-associated tyrosine-protein kinase (Homo sapiens) (P42679 whole entry): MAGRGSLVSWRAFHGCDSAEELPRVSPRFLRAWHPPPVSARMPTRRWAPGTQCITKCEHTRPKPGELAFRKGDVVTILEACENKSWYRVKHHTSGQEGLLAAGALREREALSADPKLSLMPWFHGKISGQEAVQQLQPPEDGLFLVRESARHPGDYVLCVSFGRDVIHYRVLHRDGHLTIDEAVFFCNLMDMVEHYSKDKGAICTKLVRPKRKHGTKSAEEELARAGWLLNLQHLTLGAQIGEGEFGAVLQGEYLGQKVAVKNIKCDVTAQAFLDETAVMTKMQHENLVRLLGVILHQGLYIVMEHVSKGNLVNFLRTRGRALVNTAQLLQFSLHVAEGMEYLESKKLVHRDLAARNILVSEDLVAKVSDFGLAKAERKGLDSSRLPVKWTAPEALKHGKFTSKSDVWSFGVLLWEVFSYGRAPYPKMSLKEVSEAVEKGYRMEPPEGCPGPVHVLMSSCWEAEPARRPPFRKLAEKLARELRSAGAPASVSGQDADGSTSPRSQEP

[26] = target: Serine/threonine-protein kinase SIK3 (Homo sapiens) (UniProt Q9Y2K2); conditions: Compound concentration 1000.0 nM
[27] = tested on: Phosphatidylinositol 4,5-bisphosphate 3-kinase catalytic subunit alpha isoform (Homo sapiens), P42336 [E542K]; conditions: Compound concentration 1000.0 nM
[28] = target: Phosphatidylinositol 5-phosphate 4-kinase type-2 gamma (Homo sapiens) (UniProt Q8TBX8); conditions: Compound concentration 1000.0 nM
[29] = target: Cyclin-dependent kinase 5 (Homo sapiens) (UniProt Q00535); conditions: Compound concentration 1000.0 nM
[30] = target: Myosin light chain kinase family member 4 (Homo sapiens) (UniProt Q86YV6); conditions: Compound concentration 1000.0 nM
Sequence of Myosin light chain kinase family member 4 (Homo sapiens) (Q86YV6 whole entry): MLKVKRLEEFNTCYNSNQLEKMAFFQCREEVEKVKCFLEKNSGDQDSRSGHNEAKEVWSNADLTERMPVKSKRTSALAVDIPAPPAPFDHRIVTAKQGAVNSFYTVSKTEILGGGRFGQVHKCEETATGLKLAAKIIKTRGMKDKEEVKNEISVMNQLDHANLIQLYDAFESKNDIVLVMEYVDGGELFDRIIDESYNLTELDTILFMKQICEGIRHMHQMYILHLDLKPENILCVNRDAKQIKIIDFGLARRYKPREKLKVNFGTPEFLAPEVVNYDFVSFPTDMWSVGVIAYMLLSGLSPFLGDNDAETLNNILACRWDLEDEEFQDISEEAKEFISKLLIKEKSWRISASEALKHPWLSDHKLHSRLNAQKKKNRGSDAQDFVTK

[31] = target: Ephrin type-A receptor 2 (Homo sapiens) (UniProt P29317); conditions: Compound concentration 1000.0 nM
[32] = target: Serine/threonine-protein kinase Chk2 (Homo sapiens) (UniProt O96017); conditions: Compound concentration 1000.0 nM
[33] = target: Mitogen-activated protein kinase 15 (Homo sapiens) (UniProt Q8TD08); conditions: Compound concentration 1000.0 nM
[34] = target: Serine/threonine-protein kinase PAK 1 (Homo sapiens) (UniProt Q13153); conditions: Compound concentration 1000.0 nM
[35] = target: Inhibitor of nuclear factor kappa-B kinase subunit beta (Homo sapiens) (UniProt O14920); conditions: Compound concentration 1000.0 nM
[36] = target: Casein kinase I isoform gamma-3 (Homo sapiens) (UniProt Q9Y6M4); conditions: Compound concentration 1000.0 nM
[37] = target: Serine/threonine-protein kinase LATS1 (Homo sapiens) (UniProt O95835); conditions: Compound concentration 1000.0 nM
[38] = target: Mitogen-activated protein kinase kinase kinase kinase 4 (Homo sapiens) (UniProt O95819); conditions: Compound concentration 1000.0 nM
[39] = target: Interleukin-1 receptor-associated kinase 3 (Homo sapiens) (UniProt Q9Y616); conditions: Compound concentration 1000.0 nM
[40] = target: AP2-associated protein kinase 1 (Homo sapiens) (UniProt Q2M2I8); conditions: Compound concentration 1000.0 nM
Sequence of AP2-associated protein kinase 1 (Homo sapiens) (Q2M2I8 whole entry, looked up, canonical isoform): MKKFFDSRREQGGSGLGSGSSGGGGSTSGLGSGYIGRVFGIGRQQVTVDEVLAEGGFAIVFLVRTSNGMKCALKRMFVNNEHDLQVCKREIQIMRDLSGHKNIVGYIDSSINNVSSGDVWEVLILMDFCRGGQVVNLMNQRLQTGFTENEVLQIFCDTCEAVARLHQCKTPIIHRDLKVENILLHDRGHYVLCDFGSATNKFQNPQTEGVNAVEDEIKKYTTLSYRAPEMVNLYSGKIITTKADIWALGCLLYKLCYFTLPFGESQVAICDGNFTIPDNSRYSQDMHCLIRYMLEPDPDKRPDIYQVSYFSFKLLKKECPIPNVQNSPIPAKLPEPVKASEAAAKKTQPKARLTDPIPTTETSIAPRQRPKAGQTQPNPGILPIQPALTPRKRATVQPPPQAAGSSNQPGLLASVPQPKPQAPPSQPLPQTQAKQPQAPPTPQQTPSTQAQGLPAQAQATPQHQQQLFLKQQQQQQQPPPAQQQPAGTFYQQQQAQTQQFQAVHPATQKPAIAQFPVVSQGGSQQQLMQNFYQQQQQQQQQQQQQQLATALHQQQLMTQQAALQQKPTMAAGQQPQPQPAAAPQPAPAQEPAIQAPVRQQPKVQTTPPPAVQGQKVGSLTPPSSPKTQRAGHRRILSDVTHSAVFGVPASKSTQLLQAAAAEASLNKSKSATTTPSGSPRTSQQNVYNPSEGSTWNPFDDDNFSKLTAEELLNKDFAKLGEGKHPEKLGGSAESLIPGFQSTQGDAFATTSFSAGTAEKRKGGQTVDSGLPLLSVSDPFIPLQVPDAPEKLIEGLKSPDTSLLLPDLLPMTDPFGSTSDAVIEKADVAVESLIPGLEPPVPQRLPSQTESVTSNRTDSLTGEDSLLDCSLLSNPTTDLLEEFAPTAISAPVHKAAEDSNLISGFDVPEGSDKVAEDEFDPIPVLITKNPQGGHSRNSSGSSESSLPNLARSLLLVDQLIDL

[41] = target: Phosphatidylinositol 4,5-bisphosphate 3-kinase catalytic subunit gamma isoform (Homo sapiens) (UniProt P48736); conditions: Compound concentration 1000.0 nM
[42] = tested on: Epidermal growth factor receptor (Homo sapiens), P00533 [G719C]; conditions: Compound concentration 1000.0 nM
[43] = target: MAP/microtubule affinity-regulating kinase 3 (Homo sapiens) (UniProt P27448); conditions: Compound concentration 1000.0 nM
[44] = target: Sigma intracellular receptor 2 (Homo sapiens) (UniProt Q5BJF2); conditions: Compound concentration 10.0 uM
[45] = target: Dual specificity protein kinase CLK1 (Homo sapiens) (UniProt P49759); conditions: Compound concentration 1000.0 nM

Cn1cncc1[C@@](O)(COc1ccc(C#N)cc1-c1ccc(OC(F)(F)F)cc1)c1ccc(C#N)cc1 [A-108]
inactive: residual activity [1] 96% | residual activity [2] 100% | residual activity [3] 83% | residual activity [4] 100% | residual activity [5] 100% | residual activity [6] 100% | residual activity [7] 100% | residual activity [8] 79% | residual activity [9] 91% | residual activity [10] 91% | residual activity [11] 89% | residual activity [12] 75% | residual activity [13] 88% | residual activity [14] 100% | residual activity [15] 100% | inhibition [16] 0.81% | residual activity [17] 100% | residual activity [18] 100% | residual activity [19] 75% | residual activity [20] 75% | residual activity [21] 99% | residual activity [22] 63% | residual activity [23] 94% | residual activity [24] 92% | residual activity [25] 100% | residual activity [26] 97% | residual activity [27] 81% | residual activity [28] 96% | residual activity [29] 96% | residual activity [30] 97% | residual activity [31] 89% | residual activity [32] 96% | residual activity [33] 100% | residual activity [34] 100% | residual activity [35] 100% | residual activity [36] 100% | residual activity [37] 100% | residual activity [38] 100% | residual activity [39] 91% | residual activity [40] 94% | residual activity [41] 69% | residual activity [42] 66% | residual activity [43] 93% | inhibition [44] 37.8% | residual activity [45] 100%

Cn1cncc1[C@](O)(COc1ccc(C#N)cc1-c1ccc(OC(F)(F)F)cc1)c1ccc(C#N)cc1 [ABT-100]
inactive: residual activity [1] 100% | residual activity [2] 87% | residual activity [3] 90% | residual activity [4] 90% | residual activity [5] 98% | residual activity [6] 100% | residual activity [7] 97% | residual activity [8] 97% | residual activity [9] 77% | residual activity [10] 91% | residual activity [11] 82% | residual activity [12] 100% | residual activity [13] 94% | residual activity [14] 100% | residual activity [15] 100% | inhibition [16] 1.81% | residual activity [17] 85% | residual activity [18] 100% | residual activity [19] 70% | residual activity [20] 96% | residual activity [21] 100% | residual activity [22] 95% | residual activity [23] 96% | residual activity [24] 70% | residual activity [25] 98% | residual activity [26] 67% | residual activity [27] 80% | residual activity [28] 87% | residual activity [29] 92% | residual activity [30] 93% | residual activity [31] 62% | residual activity [32] 100% | residual activity [33] 58% | residual activity [34] 100% | residual activity [35] 87% | residual activity [36] 71% | residual activity [37] 87% | residual activity [38] 100% | residual activity [39] 71% | residual activity [40] 87% | residual activity [41] 100% | residual activity [42] 82% | residual activity [43] 100% | inhibition [44] 40.3% | residual activity [45] 70%
